Patent US7176008B2, “Process for producing activated thrombin-activatable fibrinolysis inhibitor” (Merck & Co., Inc., priority 2002, dated 2007)
pIC50, pKi: −log10 of the molar value. One block for each compound: values may come before it. Residues, ends and D or L forms follow the SMILES beside them. *: point of attachment. Biotin = O=C1N[C@H]2[C@H](CS[C@H]2CCCCC(=O)*)N1; Ahx = NCCCCCC(=O)O

Assays:
[1] = target: T1, CPM (Homo sapiens, UniProt P14384)
T1 sequence (P14384 18-423 limits assumed): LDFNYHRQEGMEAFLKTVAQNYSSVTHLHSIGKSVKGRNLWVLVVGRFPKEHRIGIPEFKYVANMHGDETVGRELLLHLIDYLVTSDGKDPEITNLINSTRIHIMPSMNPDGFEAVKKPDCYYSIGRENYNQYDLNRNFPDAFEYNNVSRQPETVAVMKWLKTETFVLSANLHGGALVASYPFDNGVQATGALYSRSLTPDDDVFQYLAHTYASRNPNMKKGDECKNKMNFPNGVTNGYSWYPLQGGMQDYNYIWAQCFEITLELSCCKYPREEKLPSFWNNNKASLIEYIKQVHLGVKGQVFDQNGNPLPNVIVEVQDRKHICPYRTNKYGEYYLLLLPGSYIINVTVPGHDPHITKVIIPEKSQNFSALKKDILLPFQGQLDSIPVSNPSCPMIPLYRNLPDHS
Experimental: (§1) A typical assay (75 μL) contained each studied carboxypeptidase and selected inhibitors (in 5 μL DMSO) in HBSP buffer in 96-well round bottom microtiter plates (Costar 3365 plates). Enzyme and compound were preincubated for 15–30 minutes at room temperature. […] The final substrate concentration was 15 to 50 nM. The amount of carboxypeptidase activity was titrated to result in 40,000–50,000 electrochemiluminescence counts (typically 0.02–0.1 nM, 0.01 nM, 5 nM, and 0.15–0.65 nM. for TAFIa, CPB, CPN and CPM, respectively). […] Ruthenium-labeled G2-10 (25 μL of 0.063 μg/mL) and streptavidin magnetic beads (25 μL of 0.2 mg/mL, Dynabeads M-280) were added to the quenched solution and shaken at 300 rpm for >1 hr. G2-10 antibody and beads were prepared in a BSA diluent containing 150 mM phosphate, pH 7.8, 150 mM NaCl, 3% (w/v) BSA (protease free fraction V) and 0.05% NaN3. The volume was brought to 250 μL with HBSP and read on an Igen 96-well electrochemiluminescence plate reader (M8 Analyzer) at 620 nm. Subtraction of background activity in solutions containing only substrate was performed to determine the final activity. […] One unit was defined as one nM product generated per min.
(§2) All measurements were performed in at least duplicates and the inhibition constants (Ki) were determined by the equation below wherein Vo and Vi are activity in the absence and presence of inhibitors, respectively. Vo/Vi=1+[I]/K1
(§3) Several commercial inhibitors were tested with the electrochemiluminescence assay.
(§4) Hydrolysis of substrate was measured in HBSP (pH 7.4) for TAFIa, CPB, CPM, and CPM. Activities of CPE and CPZ were measures in acetate buffer (pH 5.5) and Tris buffer (pH 7.4), respectively.

[2] = test system: CPE
Experimental: (§5) Inhibition studies of CPE were performed in an acetate buffer containing 125 mM sodium acetate, pH 5.5, 1.25 mM CoCl2 at 37° C. […] CPE (final concentration 0.15 nM) was pre-incubated with inhibitors for 30 min at room temperature. The electrochemiluminescence substrate (final concentration 50 nM) was added and incubated for 6 hr at 37° C., then quenched with one-third volume of 1 M Tris, pH 8.0.
as §2

[3] = target: most carboxypeptidases; conditions: read-out: Ki for most carboxypeptidases; all except CPE
Experimental: (§6) A typical assay (75 μL) contained each studied carboxypeptidase and selected inhibitors (in 5 μL DMSO) in HBSP buffer in 96-well round bottom microtiter plates (Costar 3365 plates). Enzyme and compound were preincubated for 15–30 minutes at room temperature. […] The final substrate concentration was 15 to 50 nM. The amount of carboxypeptidase activity was titrated to result in 40,000–50,000 electrochemiluminescence counts (typically 0.02–0.1 nM, 0.01 nM, 5 nM, and 0.15–0.65 nM. for TAFIa, CPB, CPN and CPM, respectively). […] Ruthenium-labeled G2-10 (25 μL of 0.063 μg/mL) and streptavidin magnetic beads (25 μL of 0.2 mg/mL, Dynabeads M-280) were added to the quenched solution and shaken at 300 rpm for >1 hr. G2-10 antibody and beads were prepared in a BSA diluent containing 150 mM phosphate, pH 7.8, 150 mM NaCl, 3% (w/v) BSA (protease free fraction V) and 0.05% NaN3. The volume was brought to 250 μL with HBSP and read on an Igen 96-well electrochemiluminescence plate reader (M8 Analyzer) at 620 nm. […]
(§7) All measurements were performed in at least duplicates and the inhibition constants (Ki) were determined by the equation below wherein Vo and Vi are activity in the absence and presence of inhibitors, respectively. […]
(§8) Hydrolysis of substrate was measured in HBSP (pH 7.4) for TAFIa, CPB, CPM, and CPM. […]

[4] = target: CPE (Homo sapiens, UniProt P16870); experiment: biochemical
CPE (Homo sapiens, UniProt P16870), sequence (P16870 43-450 limits assumed): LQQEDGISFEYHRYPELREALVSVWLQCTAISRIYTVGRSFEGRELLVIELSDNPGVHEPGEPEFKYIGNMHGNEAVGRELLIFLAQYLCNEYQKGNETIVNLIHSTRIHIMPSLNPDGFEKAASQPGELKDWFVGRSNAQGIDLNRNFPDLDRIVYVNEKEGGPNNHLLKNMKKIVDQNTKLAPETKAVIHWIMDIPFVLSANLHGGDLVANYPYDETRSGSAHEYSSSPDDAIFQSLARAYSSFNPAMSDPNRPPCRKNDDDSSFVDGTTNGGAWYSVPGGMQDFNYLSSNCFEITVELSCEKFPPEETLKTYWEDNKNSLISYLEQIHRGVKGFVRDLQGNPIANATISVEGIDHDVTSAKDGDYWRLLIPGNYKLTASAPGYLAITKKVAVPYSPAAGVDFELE
Experimental: as §5, §2

[5] = target: T2, CPN (Homo sapiens, UniProt P15169)
T2 sequence (P15169 21-458): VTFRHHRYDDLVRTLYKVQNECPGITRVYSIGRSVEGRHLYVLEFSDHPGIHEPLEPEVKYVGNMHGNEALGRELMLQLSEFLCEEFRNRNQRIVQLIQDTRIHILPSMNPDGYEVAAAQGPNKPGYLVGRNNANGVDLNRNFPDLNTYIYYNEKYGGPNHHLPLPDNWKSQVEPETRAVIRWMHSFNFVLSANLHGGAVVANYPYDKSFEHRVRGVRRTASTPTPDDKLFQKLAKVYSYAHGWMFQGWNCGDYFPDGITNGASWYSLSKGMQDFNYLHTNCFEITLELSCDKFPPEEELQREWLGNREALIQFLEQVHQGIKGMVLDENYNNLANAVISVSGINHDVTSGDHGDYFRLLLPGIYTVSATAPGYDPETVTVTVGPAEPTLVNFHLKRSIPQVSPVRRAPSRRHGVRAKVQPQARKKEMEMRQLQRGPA
T2 sequence (P22792 22-545 partner): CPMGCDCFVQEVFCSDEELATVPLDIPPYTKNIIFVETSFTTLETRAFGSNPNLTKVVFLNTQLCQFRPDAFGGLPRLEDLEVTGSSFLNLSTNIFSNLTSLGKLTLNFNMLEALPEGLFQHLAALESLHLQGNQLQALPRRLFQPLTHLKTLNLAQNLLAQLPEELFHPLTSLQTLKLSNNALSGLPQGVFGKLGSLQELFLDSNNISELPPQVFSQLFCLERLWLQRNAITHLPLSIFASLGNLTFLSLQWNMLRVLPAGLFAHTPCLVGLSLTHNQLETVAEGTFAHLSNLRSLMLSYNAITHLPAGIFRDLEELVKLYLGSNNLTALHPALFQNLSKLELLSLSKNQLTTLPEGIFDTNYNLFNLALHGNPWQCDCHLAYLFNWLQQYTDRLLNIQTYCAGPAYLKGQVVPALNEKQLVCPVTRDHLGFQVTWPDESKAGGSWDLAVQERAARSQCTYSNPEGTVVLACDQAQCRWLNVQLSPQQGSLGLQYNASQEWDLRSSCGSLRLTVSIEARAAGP
Experimental: as §6, §7, §8

[6] = target: T3, CPZ (Homo sapiens, UniProt Q66K79)
T3 sequence (Q66K79 19-652): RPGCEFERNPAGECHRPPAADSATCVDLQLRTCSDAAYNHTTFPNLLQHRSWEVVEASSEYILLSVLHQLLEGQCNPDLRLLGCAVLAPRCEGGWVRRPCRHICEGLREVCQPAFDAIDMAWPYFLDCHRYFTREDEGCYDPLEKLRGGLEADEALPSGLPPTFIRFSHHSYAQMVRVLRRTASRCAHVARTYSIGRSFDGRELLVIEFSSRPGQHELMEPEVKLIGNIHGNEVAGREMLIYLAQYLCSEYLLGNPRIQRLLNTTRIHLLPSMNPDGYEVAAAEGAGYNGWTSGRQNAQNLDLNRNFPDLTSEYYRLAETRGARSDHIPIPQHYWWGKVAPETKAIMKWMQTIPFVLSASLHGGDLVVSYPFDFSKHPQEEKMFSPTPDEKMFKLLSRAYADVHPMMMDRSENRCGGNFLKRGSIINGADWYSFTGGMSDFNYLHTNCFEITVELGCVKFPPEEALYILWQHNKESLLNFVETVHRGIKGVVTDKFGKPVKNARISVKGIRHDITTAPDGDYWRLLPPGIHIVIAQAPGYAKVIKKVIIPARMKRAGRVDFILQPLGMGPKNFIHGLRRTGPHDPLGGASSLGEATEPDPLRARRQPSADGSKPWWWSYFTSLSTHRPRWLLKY
Experimental: Inhibition studies of CPE were performed in an acetate buffer containing 125 mM sodium acetate, pH 5.5, 1.25 mM CoCl2 at 37° C. […] CPE (final concentration 0.15 nM) was pre-incubated with inhibitors for 30 min at room temperature. The electrochemiluminescence substrate (final concentration 50 nM) was added and incubated for 6 hr at 37° C., then quenched with one-third volume of 1 M Tris, pH 8.0. The activity of CPZ was determined in 100 mM Tris, pH 7.4 at 37° C.
CPZ (final concentration 2 nM) was pre-incubated with inhibitors for 30 min at room temperature before substrate was added (final concentration 50 nM). […] The concentration of product was determined as described above.
as §2
Activities of CPE and CPZ were measures in acetate buffer (pH 5.5) and Tris buffer (pH 7.4), respectively.

[7] = target: T4, CPB (Homo sapiens, UniProt P15086); conditions: CPB versus TAFIa
T4 sequence (P15086 111-417): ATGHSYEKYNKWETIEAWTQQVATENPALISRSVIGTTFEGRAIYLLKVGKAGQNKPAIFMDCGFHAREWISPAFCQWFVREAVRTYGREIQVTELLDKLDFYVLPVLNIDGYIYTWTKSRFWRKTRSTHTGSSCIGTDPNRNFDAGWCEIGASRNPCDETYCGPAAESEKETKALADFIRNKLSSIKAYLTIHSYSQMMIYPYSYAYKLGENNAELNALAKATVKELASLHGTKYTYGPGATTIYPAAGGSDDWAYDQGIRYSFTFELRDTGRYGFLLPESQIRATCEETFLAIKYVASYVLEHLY
Experimental: as §1, §2, §3, §4

Compound: CSCC[C@H](NC(=O)[C@H](CC(C)C)NC(=O)CNC(=O)CCCCCNC(=O)CCCCCNC(=O)CCCC[C@@H]1SC[C@@H]2NC(=O)N[C@@H]21)C(=O)N[C@H](C(=O)NCC(=O)NCC(=O)N[C@H](C(=O)N[C@H](C(=O)N[C@@H](CCCNC(=N)N)C(=O)O)C(C)C)C(C)C)C(C)C ({Biotin-Ahx-Ahx}-GLMVGGVVR-OH)
Km ([1]; read-out: Km for CPM, 37° C.): > 50 µM

Compound: NCCCCCC(=O)O [ε-aminocaproic acid]
fold more potent on CPE than inhibition of CPB ([2]; CPE versus CPB): > 100 fold
potency on CPE relative to the other enzymes ([2]; CPE versus other carboxypeptidases): two orders of magnitude more potent
pKi [3]: ≤ 3.00
pIC50 [4]: 5.10
pKi [4]: 5.09

Continued, values first:

specificity for CPN activity ([5]; CPN versus the other carboxypeptidases): > 100 fold
pKi ([5]; read-out: Ki for CPN, room temperature, HBSP pH 7.4): 6.01
Compound: protamine

pKi [6]: 5.15
fold less potent for CPZ than for CPE ([6]; CPZ versus CPE): 440 fold
inhibitory potency toward CPB relative to TAFIa [7]: two to three orders of magnitude greater
pKi [4]: 7.80
Compound: N=C(N)NCCSC(CC(=O)O)C(=O)O (centres unmarked) [GEMSA, 2-guanidinoethylmercaptosuccinic acid]

inhibitory potency toward CPB relative to TAFIa [7]: two to three orders of magnitude greater
pKi [1]: 8.52
Compound: N=C(N)NCCSCC(CS)C(=O)O (racemic) [Plummer's Inhibitor, DL-2-mercaptomethyl-3-guinidinoethylthiopropanoic acid]
